Measurements published in ChEMBL document CHEMBL1150315, “Potent and orally bioavailable zwitterion GnRH antagonists with low CYP3A4 inhibitory activity” (Bioorg Med Chem Lett, 2008).

Experiments:
[1] = AUC in Sprague-Dawley rat at 10 mg/kg, po; assay type: ADME, organism-based; set-up: dose 10 mg/kg, route oral; details: plasma
[2] = Oral bioavailability in Sprague-Dawley rat at 10 mg/kg; assay type: ADME, organism-based; details: in vivo
[3] = Clearance in cynomolgus monkey at 10 mg/kg, iv; assay type: ADME, organism-based, Macaca fascicularis; set-up: dose 10 mg/kg, route intravenous; details: in vivo
[4] = Volume of distribution in cynomolgus monkey at 10 mg/kg, iv; assay type: ADME, organism-based, Macaca fascicularis; set-up: dose 10 mg/kg, route intravenous; details: in vivo
[5] = Half life in cynomolgus monkey at 10 mg/kg, iv; assay type: ADME, organism-based, Macaca fascicularis; set-up: dose 10 mg/kg, route intravenous; details: in vivo
[6] = Cmax in cynomolgus monkey at 10 mg/kg, po; assay type: ADME, organism-based, Macaca fascicularis; set-up: dose 10 mg/kg, route oral; details: in vivo
[7] = Tmax in cynomolgus monkey at 10 mg/kg, po; assay type: ADME, organism-based, Macaca fascicularis; set-up: dose 10 mg/kg, route oral; details: in vivo
[8] = AUC in cynomolgus monkey at 10 mg/kg, po; assay type: ADME, organism-based, Macaca fascicularis; set-up: dose 10 mg/kg, route oral; details: plasma
[9] = Oral bioavailability in cynomolgus monkey at 10 mg/kg; assay type: ADME, organism-based, Macaca fascicularis; details: in vivo
[10] = Lipophilicity, log D at pH 7.4; assay type: physicochemical; details: buffer
[11] = Clearance in Sprague-Dawley rat at 10 mg/kg, iv; assay type: ADME, organism-based; set-up: dose 10 mg/kg, route intravenous; details: in vivo
[12] = Volume of distribution in Sprague-Dawley rat at 10 mg/kg, iv; assay type: ADME, organism-based; set-up: dose 10 mg/kg, route intravenous; details: in vivo
[13] = Half life in Sprague-Dawley rat at 10 mg/kg, iv; assay type: ADME, organism-based; set-up: dose 10 mg/kg, route intravenous; details: in vivo
[14] = Cmax in Sprague-Dawley rat at 10 mg/kg, po or 10 mg/kg, iv; assay type: ADME, organism-based; details: in vivo
[15] = Tmax in Sprague-Dawley rat at 10 mg/kg, po or 10 mg/kg, iv; assay type: ADME, organism-based; details: in vivo
[16] = Dissociation constant, pKa of the compound; assay type: physicochemical

Row | AUC [1] | bioavailability [2] | clearance [3] | Vd [4] | half-life [5] | Cmax [6] | Tmax [7] | AUC [8] | bioavailability [9] | logD [10] | clearance [11] | Vd [12] | half-life [13] | Cmax [14] | Tmax [15] | pKa [16] | SMILES
1 | 132 ng·h/mL | 3% | 7.9 mL/min/kg | 4.9 L/kg | 450 min | 7870 ng/mL | 37.8 min | 11100 ng·h/mL | 52.7% | 2.1 | 37.6 mL/min/kg | 1.3 L/kg | 24 min | 149 ng/mL | 15 min | – | O=C(O)CCCN[C@@H](Cn1c(=O)c(-c2ccccc2Cl)cn(Cc2c(F)cccc2C(F)(F)F)c1=O)c1ccccc1
2 | 63.3 ng·h/mL | 2.4% | 20.9 mL/min/kg | 1.8 L/kg | 60 min | 2040 ng/mL | 30 min | 1900 ng·h/mL | 22.6% | 1.8 | 64.1 mL/min/kg | 1.7 L/kg | 18 min | 77 ng/mL | 15 min | 4.16 | COc1cccc(-c2cn(Cc3c(F)cccc3C(F)(F)F)c(=O)n(C[C@H](NCCCC(=O)O)c3ccccc3)c2=O)c1F
